# Experimental data published in patent US7572913B2, “4-substituted piperidine derivatives” (Bioaxone Therapeutique Inc., priority 2004, dated 2009).
# Key:
# [1] = biological target: T1, ROCKII (Rattus norvegicus, UniProt Q62868); test: ROCKII inhibition at a single concentration of 10 μM (selectivity histogram, Table 3); assay type: biochemical; details: Table 3; compound at 10 micromolar
# T1 construct: purchased Upstate Ltd. (United Kingdom)
# Method: Compounds of this invention can be evaluated for kinase inhibition activity as solutions in 100% DMSO at a concentration of 10 μM added to GSK3β(h) and to ROCK-II(r) with ATP present at a concentration of 100 μM. Samples of compounds of this invention can be tested at 10 μM.
# The data can be presented as relative ROCK kinase inhibition at a reference compound concentration of 3.5 uM and at 35 μM, wherein 0 signifies complete inhibition under the ATP concentration tested (100 μM). ROCK kinase activity is the opposite of ROCK kinase inhibition, and is compared with the GSKB kinase activity.
# Experiments were done in duplicate. ATP was present at 100 μM in the assay.
# The values were expressed in a percentage of inhibition of each kinase. Experiments were done in duplicate. ATP was present at 100 μM in the assay.
# (§1) Percent net neurite outgrowth at 35 micromolar concentrations are presented in Table 3 together with percent Rock inhibition at 10 micromolar for three compounds designated BA-1043, BA-1049, and BA-1050. […] It should be noted that percent Rock activity is equal to 100% minus percent Rock inhibition.
# [2] = system: NG108 cells; test: Bioassay of neurite outgrowth in NG108 cells on plastic; assay type: cell-based; details: compound at 35 micromolar
# From the text: as §1
# [3] = system: human plasma proteins; details: equilibrium dialysis 24 h, 37° C.
# From the text: Plasma or serum protein binding assays using the equilibrium dialysis method are used to determine drug availability. Equilibrium dialysis studies using a 96-well microplate format or using conventional 2-chambered Teflon dialysis cells can be used to determine plasma or serum binding, and LC/MS/MS analysis is used for test compound quantification. The Teflon dialysis cell system is commonly used to determine the time to reach equilibrium, the fraction of a compound bound and unbound to plasma proteins and the effect of concentration on the extent of binding. Test compound quantification is performed by HPLC or LC/MS/MS analysis.
# To perform equilibrium dialysis the following procedures can be used. To 0.990 mL of thawed plasma (37° C.), a 10 μL aliquot of the stock solutions is added for test compound concentrations of 35 μM. An appropriate volume of buffer (Dulbecco's phosphate buffered saline, pH 7.4) is spiked with each test compound at a concentration of 35 μM. Duplicate aliquots (130 μL) of each spiked plasma and buffer solution are collected prior to dialysis into labeled 1.5 mL polypropylene tubes and stored frozen at −40° C. […] Equilibrium dialysis is performed in a 96-well Teflon dialysis unit. Each well of the unit consists of two chambers separated by a vertically aligned dialysis membrane (regenerated cellulose) with a molecular weight cut-off of 12-14 KDa. The equilibrium dialysis membranes are first pre-soaked in deionized water for 30 min, then soaked in 20% ethanol for 20 min, followed by rinsing twice with deionized water. The equilibrium dialysis apparatus is assembled according to the manufacturer's directions. One chamber of each well is filled with 150 μL of blank buffer (to prevent membrane dehydration). Aliquots (150 μL) of spiked plasma or spiked buffer are added to the opposing chamber in each well. The top of the plate is sealed with an adhesive sealing film to prevent evaporation and to maintain constant pH during incubation. All dialysis experiments with the test compounds and standards are assessed using duplicate samples. The dialysis apparatus is incubated at 37° C. in an orbital shaker/incubator (Lab-Line Enviro) samples are collected following 24 hours of incubation. Samples containing the test compounds are stored frozen at −70° C. until analysis. Samples (100 μL) containing the radiolabels are added and mixed by vortex. The disintegrations per minute (dpm) in each vial are measured with a liquid scintillation counter. The fraction of each test compound and standard unbound (fu) to human serum proteins is calculated according to the following equation:
# [formula] wherein Cbuffer and Cplasma represent the concentration of the compound measured in the buffer and plasma chambers, respectively, following dialysis. The fraction bound (fb) to the plasma proteins is determined as: 1−fu.
# [4] = patients treated for stroke; cited from earlier work
# [5] = system: Caco-2 cells; details: Caco-2 monolayer
# Method: After incubation, samples are taken from the apical and basolateral compartment and the concentration of the test compound is determined by LCMS (liquid chromatography/mass spectroscopy).
# Stock cultures are sub-cultured every 7 days when cells have reached 80-90% confluency. Studies are conducted with Caco-2 cells, used between passage 21 to 40. Cells are plated on Transwell™ inserts at a density of 1×10^4 cells/well in 24-well culture plates. Cells are incubated at 37° C. under 5% CO2 atmosphere, and media (MEM Earles medium containing 10% FBS, 0.1 mM non-essential amino acids and 1 mM sodium pyruvate) are changed 3 times per week. Cells are used for permeability studies between 20 to 22 days after seeding. On the day of the assay, cell monolayers are washed 3 times. Each wash consists of aspirating liquid from the apical (A) and basolateral (B) sides, and adding 0.5 and 1 mL, respectively, of fresh Dulbecco's phosphate-buffered saline with Mg^2+ and Ca^2+, pH 7.4 (PBS). After the final wash, a volt-ohm-meter is used to determine the trans-epithelial electrical resistance (TEER), a measure of the integrity of the monolayer. Cells are not be used if the TEER values are less than 200 ohms/cm^2. Working solutions of the test compounds are prepared in PBS. […] For each test compound and standard, apical to basolateral (A to B) and basolateral to apical (B to A) transport is measured. The final volume on the basolateral side is 1 mL; the final volume on the apical side is 0.3 mL. The test compound working solution or radiolabeled standard solution is added to the ‘donor’ side. Blank buffer is added to the ‘acceptor’ side. […] The permeability of each compound and control is measured by sampling 200μL of medium from the acceptor compartment at time zero and following 60 minutes of incubation. […] A 3 mL aliquot of liquid scintillant is added to the vials, and disintegrations per minute (dpm) are determined in a liquid scintillation counter. […] The permeability of Lucifer Yellow is measured by sampling 100 μL of medium from the basolateral compartment following 60 minutes of incubation. […]
# [6] = system: HUVEC cells; test: Endothelial cell migration, Boyden chamber with VEGF; assay type: cell-based, human; details: 50 μM; 20 h; 10 ng/mL VEGF; fibronectin-coated transwells
# Method: A common assay uses Boyden or Transwell chambers, a compartmentalized cell cultures system. Cells are plated in the upper compartment of the Transwell chamber, and the ability of a compound under evaluation to block cell migration through, for example the pores of a Fluoroblok membrane, to the bottom compartment is measured. […] Typically, a chemoattractant is added to the bottom well or compartment. In the case of endothelial cells, a useful chemoattractant is vascular endothelial growth factor (VEGF). […] Experiments can be performed in 24-well plates (individual insert or multiwell insert) or in 96-multiwell insert plates with appropriate correction for volume and cell density. […] Following incubation with the cell dye, fluorescence from invaded cells is read in a fluorescence plate reader with bottom reading capabilities at excitation/emission wavelengths of 485/530 nm without further manipulation. Only those labeled cells that have migrated through the pores of the Fluoroblok membrane will be detected.
# The data may be expressed as either fluorescent units (FU) or as “fold migration”, i.e., the FU value of the cells migrating through the fibronectin coated insert membrane in response to a chemoattractant with inhibitor relative to the FU value of a control, i.e., without inhibitor. […]
# [7] = system: HUVEC cells; test: HUVEC capillary tube formation on ECMatrix; assay type: cell-based, human; details: 15,000 HUVEC cells on ECMatrix, 6-8 h
# From the text: HUVEC cells will form capillary tubes when plated on protein substrates composed of proteins found in the extracellular matrix. Typical substrates useful for experiments with HUVEC cells are Matrigel, fibronectin or collagen. Matrigel is composed of several proteins that make up the extracellular matrix. Extracelluar matrix substrates can be plated in tissue culture dishes as 3-dimensional cell culture substrates. Another reagent that can be used as a substrate is ECMatrix™ (Chemicon International, Temecula, Calif.), a reconstituted basement membrane matrix of proteins derived from the Engelbreth Holm-Swarm (EHS) mouse tumor. This substrate gels rapidly at 22-35° C. Thus, ECMatrix™ is thawed overnight on ice or in +4° C. A 96-well plate is pre-chilled, and 100μl of the ECMatrix solution is added to each well. The plate is incubated at 37° C. for at least one hour to allow the matrix solution to solidify. The HUVEC cells are harvested and resuspended in a standard cell growth media supplemented with endothelial cell growth supplements. The presence of serum (0.5-10%) is optional. EGM (endothelial cell growth media) can be used. The HUVEC cells are plated at a density of 5×10^3 to 1×10^4 cells per well onto the surface of the polymerized ECMatrix™, and then incubated overnight in a tissue-culture incubator. Cellular network structures are fully developed by 12 to 18 h, with the first signs apparent after 5-6 h. After 24 h, the cells begin to undergo apoptosis. To study the effect of anti-angiogenic factors, they can be added at the time of cell plating. Optional tissue culture vary depending on the cell type, age, and media growth conditions. The tubes are inspected under an inverted light microscope at 40×-200× magnification. Since there is a lack of contrast of the cellular networks, the cultures can be stained with any of the common cell staining procedures such as Diff-Quick or Wright-Giemsa or crystal-violet. The total capillary tube length measurement method is used to quantify the results. The total length of all the capillary tubes in several (3-10) view-fields is measured by Northern Eclipse software.
# Photos are representative of 5 separate experiments.
# Tranilast is used as a positive control. For this experiment, 15,000 HUVEC cells were plated on ECMatrix™ and incubated for 6-8 h alone before quantification. Results are presented as mean± SEM for one experiment analyzed in duplicate. […] It is used as a positive control.
# T1 sequence (Q62868 whole entry): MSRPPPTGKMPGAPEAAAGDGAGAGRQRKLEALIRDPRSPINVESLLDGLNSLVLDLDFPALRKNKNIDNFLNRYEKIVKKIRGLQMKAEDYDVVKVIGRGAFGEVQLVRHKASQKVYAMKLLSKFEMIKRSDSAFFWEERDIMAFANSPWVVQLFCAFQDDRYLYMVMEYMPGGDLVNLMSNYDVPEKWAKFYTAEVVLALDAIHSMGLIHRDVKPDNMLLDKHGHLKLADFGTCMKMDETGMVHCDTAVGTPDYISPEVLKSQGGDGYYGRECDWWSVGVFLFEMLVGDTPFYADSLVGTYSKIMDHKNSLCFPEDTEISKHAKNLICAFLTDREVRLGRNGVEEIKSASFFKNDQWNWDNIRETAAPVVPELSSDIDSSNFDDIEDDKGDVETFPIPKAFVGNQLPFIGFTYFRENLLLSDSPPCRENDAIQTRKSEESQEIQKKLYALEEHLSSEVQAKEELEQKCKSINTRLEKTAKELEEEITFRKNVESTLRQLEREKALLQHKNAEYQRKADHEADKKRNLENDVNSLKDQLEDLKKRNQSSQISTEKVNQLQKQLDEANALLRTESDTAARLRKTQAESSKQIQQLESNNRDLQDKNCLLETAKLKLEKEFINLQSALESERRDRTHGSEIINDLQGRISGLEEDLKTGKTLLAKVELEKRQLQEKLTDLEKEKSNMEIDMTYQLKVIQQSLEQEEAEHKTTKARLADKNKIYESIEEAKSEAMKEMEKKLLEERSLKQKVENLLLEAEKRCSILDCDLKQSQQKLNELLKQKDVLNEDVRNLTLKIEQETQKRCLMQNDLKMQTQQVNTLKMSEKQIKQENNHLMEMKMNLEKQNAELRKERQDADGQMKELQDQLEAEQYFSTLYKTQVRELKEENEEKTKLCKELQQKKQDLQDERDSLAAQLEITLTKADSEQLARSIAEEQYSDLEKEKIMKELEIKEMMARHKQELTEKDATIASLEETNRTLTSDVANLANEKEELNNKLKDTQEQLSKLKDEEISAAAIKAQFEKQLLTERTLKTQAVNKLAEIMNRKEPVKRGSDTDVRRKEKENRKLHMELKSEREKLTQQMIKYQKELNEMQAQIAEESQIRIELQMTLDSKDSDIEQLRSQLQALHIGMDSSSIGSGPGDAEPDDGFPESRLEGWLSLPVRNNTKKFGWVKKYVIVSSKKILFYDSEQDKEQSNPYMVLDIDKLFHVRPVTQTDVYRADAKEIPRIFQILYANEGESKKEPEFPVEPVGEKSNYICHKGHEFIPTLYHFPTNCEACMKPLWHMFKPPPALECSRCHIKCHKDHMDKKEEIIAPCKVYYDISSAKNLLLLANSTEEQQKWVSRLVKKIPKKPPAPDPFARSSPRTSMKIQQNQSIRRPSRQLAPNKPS
structure (smiles),measurement,setting,value
"CN(N)C1CCN(S(=O)(=O)c2cccc3cnccc23)CC1.Cl.Cl [BA-1043, N-(5′″-isoquinolinesulfonyl)-4-[N′-(1′-methyl)hydrazino]piperidine dihydrochloride]",Percent Rock inhibition at 10 micromolar,[1],61%
same,Percent Net Neurite Outgrowth at 35 micromolar,[2],15.2%
"CC(C)NC[C@H](O)COc1cccc2ccccc12 [(S)-Propranolol, reference compound]",Bound (%),[3],91.3%
same,Unbound (%),[3],8.67%
"CCCC(N)C1CCN(S(=O)(=O)c2cccc3cnccc23)CC1.Cl.Cl (racemic) [BA-1050, (R,S)-N-(5″-isoquinolinesulfonyl)-4-[butan-1′-amino]piperidine dihydrochloride]",Percent Rock inhibition at 10 micromolar,[1],79%
same,Percent Net Neurite Outgrowth at 35 micromolar,[2],20.2%
"CC1=NN(c2ccccc2)C(=O)C1 [Radicut, 3-methyl-1-phenyl-2-pyrazoline-5-one]",adverse effect in clinical use (in words),[4],kidney toxicity
"OC[C@@H](O)[C@@H](O)[C@H](O)[C@H](O)CO [[^3H]-Mannitol, reference compound]",B − A/A − B Papp ratio,[5],0.81
"COc1ccc(C=CC(=O)Nc2ccccc2C(=O)O)cc1OC [Tranilast, N-(3′,4′-dimethoxycinnamoyl)anthranilic acid, reference compound]","migration, % of the amount observed with Ctl+VEGF",[6],approximately 30%
same,relative amount of tube formation,[7]; 10 μg/mL,approximately 35 % relative to control
same,relative amount of tube formation,[7]; 50 μg/mL,approximately 30 % relative to control
